Source: US12077503B2, “Substituted cyclic amides and their use as herbicides” (FMC CORPORATION, priority 2015, dated 2024)

Columns and labels:
Assay type in all cases: in vivo
[1] = tested on: rice (Oryra sativa); assay: Test B flooded paddy test; conditions: Oryza sativa, Flood, 250 g ai/ha; scale of 0 to 100 where 0 is no effect and 100 is complete control; read-out: Rice plant response rating
Method in brief: (§1)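 Percent control, visually estimated after 13–15 d in the greenhouse on a 0–100 basis, compares treated pots with untreated ones; compound was put into paddy water 3 cm above the soil when plants had two leaves.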

[2] = tested on: sedge, umbrella (small-flower umbrella sedge, Cyperus difformis); assay: Test B flooded paddy test; conditions: Cyperus difformis, Flood, 250 g ai/ha; scale of 0 to 100 where 0 is no effect and 100 is complete control; read-out: Sedge, Umbrella plant response rating
Method in brief: as §1

[3] = tested on: barnyardgrass (Echinochloa crus-galli); assay: Test B flooded paddy test; conditions: Echinochloa crus-galli, Flood, 250 g ai/ha; scale of 0 to 100 where 0 is no effect and 100 is complete control; read-out: Barnyardgrass plant response rating
Method in brief: as §1

[4] = tested on: ducksalad (Heteranthera limosa); assay: Test B flooded paddy test; conditions: Heteranthera limosa, Flood, 250 g ai/ha; scale of 0 to 100 where 0 is no effect and 100 is complete control; read-out: Ducksalad plant response rating
Method in brief: as §1

[5] = tested on: ryegrass, Italian (Italian ryegrass, Lolium multiflorum); assay: Test A postemergence; conditions: Lolium multiflorum, post-emergence, 240 h, 125 g ai/ha, postemergence; visual injury after approximately 10 d; 0 to 100 scale (0 no effect, 100 complete control); read-out: Plant response rating, Ryegrass, Italian
Method in brief: (§2)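 Visual injury, scored on a 0–100 scale relative to untreated controls, was recorded about 10 d after application. Treatments were a preemergence soil spray over planted seeds or a postemergence spray on plants at the one- to two-leaf stage, 2 to 10 cm tall, all in loam soil–sand blend in the greenhouse.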

[6] = tested on: corn (Zea mays); assay: Test A postemergence; conditions: Zea mays, post-emergence, 240 h, 125 g ai/ha, postemergence; visual injury after approximately 10 d; 0 to 100 scale (0 no effect, 100 complete control)
Method in brief: as §2

[7] = tested on: pigweed (Amaranthus retroflexus); assay: Test A postemergence; conditions: Amaranthus retroflexus, post-emergence, 240 h, 125 g ai/ha, postemergence; visual injury after approximately 10 d; 0 to 100 scale (0 no effect, 100 complete control); read-out: Plant response rating, Pigweed
Method in brief: as §2

[8] = tested on: blackgrass (Alopecurus myosuroides); assay: Test A postemergence; conditions: Alopecurus myosuroides, post-emergence, 240 h, 125 g ai/ha, postemergence; visual injury after approximately 10 d; 0 to 100 scale (0 no effect, 100 complete control); read-out: Plant response rating, Blackgrass
Method in brief: as §2

[9] = tested on: Kochia (Kochia scoparia); assay: Test A postemergence; conditions: Bassia scoparia, post-emergence, 240 h, 125 g ai/ha, postemergence; visual injury after approximately 10 d; 0 to 100 scale (0 no effect, 100 complete control); read-out: Plant response rating, Kochia
Method in brief: as §2

[10] = tested on: giant foxtail (Setaria faberii); assay: Test A postemergence; conditions: Setaria faberi, post-emergence, 240 h, 125 g ai/ha, postemergence; visual injury after approximately 10 d; 0 to 100 scale (0 no effect, 100 complete control); read-out: Plant response rating, Foxtail, Giant
Method in brief: as §2

[11] = tested on: Galium (catchweed bedstraw, Galium aparine); assay: Test A postemergence; conditions: Galium, post-emergence, 240 h, 125 g ai/ha, postemergence; visual injury after approximately 10 d; 0 to 100 scale (0 no effect, 100 complete control); read-out: Plant response rating, Galium
Method in brief: as §2

[12] = tested on: ragweed (common ragweed, Ambrosia elatior); assay: Test A postemergence; conditions: Ambrosia artemisiifolia, post-emergence, 240 h, 125 g ai/ha, postemergence; visual injury after approximately 10 d; 0 to 100 scale (0 no effect, 100 complete control); read-out: Plant response rating, Ragweed
Method in brief: as §2

[13] = tested on: barnyardgrass (Echinochloa crus-galli); assay: Test A postemergence; conditions: Echinochloa crus-galli, post-emergence, 240 h, 125 g ai/ha, postemergence; visual injury after approximately 10 d; 0 to 100 scale (0 no effect, 100 complete control); read-out: Plant response rating, Barnyardgrass
Method in brief: as §2

[14] = tested on: wheat (Triticum aestivum); assay: Test A postemergence; conditions: Triticum aestivum, post-emergence, 240 h, 125 g ai/ha, postemergence; visual injury after approximately 10 d; 0 to 100 scale (0 no effect, 100 complete control); read-out: Plant response rating, Wheat
Method in brief: as §2

Cc1cc([C@H]2CN(C)C(=O)[C@@H]2C(=O)Nc2ccc(F)c(F)c2F)ccc1F [Compound 719]
pest or weed control at 250 g/ha [1]: 0%
pest or weed control at 250 g/ha [2]: 0%
pest or weed control at 250 g/ha [3]: 85%
pest or weed control at 250 g/ha [4]: 100%
pest or weed control at 125 g/ha [5]: 50%
Corn plant response rating (crop injury, 0 = no effect, 100 = complete kill) at 125 g/ha [6]: 90%
pest or weed control at 125 g/ha [7]: 50%
pest or weed control at 125 g/ha [8]: 60%
pest or weed control at 125 g/ha [9]: 60%
pest or weed control at 125 g/ha [10]: 90%
pest or weed control at 125 g/ha [11]: 60%
pest or weed control at 125 g/ha [12]: 30%
pest or weed control at 125 g/ha [13]: 90%
plant injury at 125 g/ha [14]: 80%
